Results taken from EP0449649A2, “Antineoplastic quinones and methods of using same” (priority 1990, dated 1991).
≈ marks a conversion by molar mass, not a printed value. Where two headings read alike, the source gives them in different places.

Tests used:
WiDr human colon cancer = assay: in vitro screen against WiDr colon cancer; format: cell-based; details: read-out: IC₅₀
Excerpt: (§1) (see: Salmon, S.E. et al, Cancer Treat Rep., 1981, 65, 102; Salmon, S.E. et al, N. Engl. J. Med., 1978, 298, 1231;and Albert, DS, Cancer Chemother Pharmacol, 1981, 6, 253). The protocol employed for MTT assays are reported. (see: Mossman T.J. Immunol Methods, 1983, 65, 55).
6-(N-Aziridinyl)-7-methyl-2, 3-dihydro - 1H- pyrrolo [1, 2-ª] benzimidazole-5, 8-dione-3-acetate (1c) was screened for in vitro activity against WiDr human colon cancer.
6-(N-Aziridinyl)-7-methyl-2, 3-dihydro - 1H- pyrrolo [1, 2-ª] benzimidazole-5, 8-dione-3-carbamate (1d) was screened for in vitro activity against WiDr/S human colon cancer.

[1] = tested on: 110-fold doxorubicin-resistant ovarian cancer (2780/DOX); assay: in vitro screen against doxorubicin-resistant ovarian cancer; format: cell-based; details: read-out: IC₅₀
Excerpt: as §1
(§2) 6-(N-Aziridinyl)-7-methyl-2, 3-dihydro - 1H- pyrrolo [1, 2-a] benzimidazole-5, 8-dione-3-acetate (1c) was screened for in vitro activity against doxorubicin-sensitive ovarian cancer (2780/S) and 110-fold doxorubicin-resistant ovarian cancer (2780/DOX).
(§3) 6-(N-Aziridinyl)-7-methyl-2, 3-dihydro - 1H- pyrrolo [1, 2-ª] benzimidazole-5, 8-dione-3-carbamate (1d) was screened for in vitro activity against doxorubicin-sensitive (2780/S) and doxorubicin-resistant (2780/DOX) ovarian cancer.

[2] = tested on: cisplatin-resistant (2008/R) ovarian cancers; assay: in vitro screen against cisplatin-resistant ovarian cancer; format: cell-based; details: for IC₅₀: in vitro
Excerpt: as §1
(§4) 6-(N-Aziridinyl)-7-methyl-2, 3-dihydro - 1H- pyrrolo [1, 2-ª] benzimidazole-5, 8-dione-3-acetate (1c) was screened for in vitro activities against cisplatin-sensitive (2008/S) and cisplatin-resistant (2008/R) ovarian cancers.
(§5) 6-(N-Aziridinyl)-7-methyl-2, 3-dihydro - 1H- pyrrolo [1, 2-a] benzimidazole-5, 8-dione-3-carbamate (1d) was screened for in vitro activity against cisplatin-sensitive (2008/S) and cisplatin-resistant (2008/R) ovarian cancers.

SW480 human colon cancer = assay: in vitro screen against SW480 colon cancer; format: cell-based
Excerpt: as §1
6-(N-Aziridinyl)-7-methyl-2, 3-dihydro - 1H- pyrrolo [1, 2-ª] benzimidazole-5, 8-dione-3-acetate (1c) was screened for in vitro activity against SW480 human colon cancer.
6-(N-Aziridinyl)-7-methyl-2, 3-dihydro - 1H- pyrrolo [1, 2-ª] benzimidazole-5, 8-dione-3-carbamate (1d) was screened for in vitro activity against SW480 human colon cancer.

8226/S human myeloma = assay: in vitro screen against 8226/S myeloma; format: cell-based; details: read-out: IC₅₀
Excerpt: as §1
6-(N-Aziridinyl)-7-methyl-2, 3-dihydro - 1H- pyrrolo [1, 2-ª] benzimidazole-5, 8-dione-3-acetate (1c) was screened for in vitro activity against 8226/S human myeloma.
6-(N-Aziridinyl)-7-methyl-2, 3-dihydro - 1H- pyrrolo [1, 2-ª] benzimidazole-5, 8-dione-3-carbamate (1d) was screened for in vitro activity against 8226/S myeloma.

[3] = tested on: cisplatin-sensitive (2008/S) ovarian cancers; assay: in vitro screen against cisplatin-sensitive ovarian cancer; format: cell-based; details: for IC₅₀: in vitro
Excerpt: as §1, §4, §5

[4] = tested on: doxorubicin-sensitive ovarian cancer (2780/S); assay: in vitro screen against doxorubicin-sensitive ovarian cancer; format: cell-based; details: read-out: IC₅₀
Excerpt: as §1, §2, §3

Fresh ovarian tumors = assay: clonogenic assay on fresh ovarian tumors from patients; format: cell-based, human
Description: as §1
Fresh ovarian tumors were collected from twelve (12) confirmed ovarian cancer patients. Azimitosene 1c was tested in vitro using the clonogenic assay described by Salmon et al, Salmon et al, and Albert et al (op cit). The IC₅₀ data (the drug concentration required to obtain 50% inhibition of tumor colony formation after 1 hour exposure to test compound) obtained from these assays are shown in Table 1.

Row | Structure (SMILES) | IC50 (WiDr human colon cancer; WiDr) [nM] | IC50 [1] [nM] | IC50 ([2]; Homo sapiens, read-out: IC₅₀) [nM] | IC50 (SW480 human colon cancer; SW480, read-out: IC₅₀) [nM] | IC50 (8226/S human myeloma) [nM] | IC50 ([3]; Homo sapiens, read-out: IC₅₀) [nM] | IC50 [4] [nM] | IC50 (Fresh ovarian tumors; 50% inhibition of tumor colony formation after 1 hour exposure, each value is the tumor of one patient (Patient No. 1-12)) | IC50 (Fresh ovarian tumors; Homo sapiens, median over the fresh ovarian tumors of Table 1, read-out: median IC₅₀) [µg/mL] | ovarian cancers that respond (Fresh ovarian tumors; share of the 12 fresh ovarian tumors of Table 1) [%] | IC₅₀ [2] | IC₅₀ [3] | IC50 (WiDr human colon cancer; WiDr (WiDr/S), in vitro) [nM] | IC50 ([1]; 2780/DOX, in vitro) [nM] | IC50 (SW480 human colon cancer; SW480, in vitro, read-out: IC₅₀) [nM] | IC50 (8226/S human myeloma; 8226/S, in vitro) [nM] | IC50 ([4]; 2780/S, in vitro) [nM]
1 | CC(=O)OC1CCn2c1nc1c2C(=O)C(C)=C(N2CC2)C1=O (stereo not drawn) [1c, 6-(N-aziridinyl)-7-methyl-2,3-dihydro-1H-pyrrolo [1,2-a]benzimidazole-5,8-dione-3-Acetate] | 6 | 16 | 7 | 9 | 100 | 7 | 0.6 | unachievable | 0.05 (≈ 0.166 µM) | 91 |  |  |  |  |  |  | 
2 | CC1=C(N2CC2)C(=O)c2nc3n(c2C1=O)CCC3OC(N)=O (stereo not drawn) [1d, 6-N-Aziridinyl-7-methyl-2,3-dihydro-1H-pyrrolo [1,2-a]benzimidazole-5,8-dione-3-Carbamate] | 100 | 200 |  | 19 | 140 |  | 100 |  |  |  | not attainable | not attainable |  |  |  |  | 
3 | CO[C@@]12[C@H](COC(N)=O)C3=C(C(=O)C(C)=C(N)C3=O)N1C[C@@H]1N[C@@H]12 [MMC, mitomycin C, reference compound] |  |  |  |  |  |  |  |  |  |  | not attainable | not attainable | 20 | 200 | 7 | 200 | 100
